Reference: patent US5891434A, “Monoclonal antibodies to the APO-1 antigen” (Centocor, Inc., priority 1995, dated 1999)

How the values were obtained:
[1] = system: DNA fragmentation induced by anti-APO-1; test: endonuclease-mediated DNA fragmentation induced by anti-APO-1, in the presence of Ca2+ channel blockers; type: cell-based; conditions: Ca2+ channel blocker at 50 μM
Method: CCRF-CEM.S2 cells (10^6 per milliliter) were incubated with MAb (1 μg/ml) in culture medium at 37° C. At various times, aliquots of 10^6 cells were removed and DNA was prepared.
SKW6.4 cells were either incubated with the isotype-matched control MAb FII20, FII23 (nonbinding MAb), or anti-APO-1 in microcultures for 24 hours before labeling with [^3 H]-thymidine for a further 4 hours. The data represent the mean of duplicate cultures with a variation of less than 5%. The cells were cultured in RPMI 1640 medium (Gibco, Grand Island, N.Y.), supplemented with 2 mM L-glutamine, streptomycin (100 μg/ml), penicillin (100 U/ml), 20 mM Hepes buffer pH 7.3, and 10% heat-inactivatedfetal bovine serum (Conco Lab-Division, Wiesbaden, FRG). For microcultures 1×10^4 cells per well were cultured in duplicates in flat bottom 96-well microtiter plates (Tecnomara, Fernwald, FRG) (200 μfinal volume per well). After 24 hours, the cells were labeled with 0.5 μCi of [^3 H]-thymidine (Amersham, Braunschweig, FRG)) for 4 hours. Before harvesting, the microcultures were examined by microscopic inspection. For DNA fragmentation 1×10^6 cells were washed with cold phosphate-buffered saline and disrupted with NTE buffer, pH 8 (100 mM NaCl, 10 mM Tris-HCl, 1 mM EDTA) containing 1% SDS and proteinase K (0.2 mg/ml). […]

[2] = system: membrane blebbing induced by anti-APO-1; test: kinetics of membrane blebbing induced by anti-APO-1, in the presence of chelators; type: cell-based; conditions: 10 mM
Excerpt: The CCRF-CEM.S2 subclone was obtained by cloning cells under limiting dilution conditions from the CCRF-CEM T cell line at one cell per well in 96-well microtiter plates.

Compound | inhibition of endonuclease-mediated DNA fragmentation induced by anti-APO-1 [1] | influence on kinetics of membrane blebbing induced by anti-APO-1 (within 30 minutes) [2]
Furamicin | not inhibited | –
O=C(O)CN(CCOCCOCCN(CC(=O)O)CC(=O)O)CC(=O)O [EGTA] | – | not influenced
COC(=O)C1=C(C)NC(C)=C(C(=O)OC)C1c1ccccc1[N+](=O)[O-] [Nifedipin] | not inhibited | –
O=C(O)CN(CCN(CC(=O)O)CC(=O)O)CC(=O)O [EDTA] | – | not influenced
